According to patent US20240158392A1 (Janssen Biotech, Inc., priority 2021, published 2024):

What follows are molecules tested against SIK2 (Homo sapiens, UniProt Q9H0K1) (assay: SIK2 Enzymatic Assay High Version 2 (High ATP)). Conditions: not given.
Type: biochemical
Outline: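 At room temperature, enzyme (6 nM, 2× final) was preincubated with compound for 30 min, then 6 mM ATP and 400 μM HDAC5tide (both 2× final) were added for 2 h. ADP formed was measured by ADP-Glo Max (2 h reagent, 1 h detection) using luminescence.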

SIK2, sequence (Q9H0K1 whole entry, species assumed): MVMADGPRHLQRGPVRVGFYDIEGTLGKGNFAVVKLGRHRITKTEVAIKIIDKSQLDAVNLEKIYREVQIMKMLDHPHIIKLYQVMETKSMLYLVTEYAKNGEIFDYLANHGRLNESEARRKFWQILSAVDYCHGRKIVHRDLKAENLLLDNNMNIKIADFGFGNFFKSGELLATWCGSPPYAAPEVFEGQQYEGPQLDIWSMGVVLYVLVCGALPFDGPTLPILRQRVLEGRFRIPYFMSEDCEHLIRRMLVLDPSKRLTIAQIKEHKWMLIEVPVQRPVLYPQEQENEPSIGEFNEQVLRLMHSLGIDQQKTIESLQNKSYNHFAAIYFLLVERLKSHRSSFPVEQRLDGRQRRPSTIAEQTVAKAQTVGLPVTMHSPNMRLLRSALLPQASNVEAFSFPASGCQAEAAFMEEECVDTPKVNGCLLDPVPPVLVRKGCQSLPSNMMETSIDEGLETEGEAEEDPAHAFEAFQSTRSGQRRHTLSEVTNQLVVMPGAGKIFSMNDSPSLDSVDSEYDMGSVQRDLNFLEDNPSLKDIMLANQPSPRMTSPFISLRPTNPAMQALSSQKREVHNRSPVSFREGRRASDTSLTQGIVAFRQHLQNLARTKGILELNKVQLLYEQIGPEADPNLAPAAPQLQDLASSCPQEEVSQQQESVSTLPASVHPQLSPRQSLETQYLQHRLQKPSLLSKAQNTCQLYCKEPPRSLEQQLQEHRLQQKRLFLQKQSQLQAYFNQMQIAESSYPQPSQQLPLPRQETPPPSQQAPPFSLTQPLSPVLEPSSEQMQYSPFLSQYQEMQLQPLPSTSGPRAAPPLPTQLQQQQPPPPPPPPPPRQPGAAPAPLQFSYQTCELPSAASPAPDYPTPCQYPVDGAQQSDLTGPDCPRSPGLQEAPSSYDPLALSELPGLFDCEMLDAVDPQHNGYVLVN

| SMILES | IC50 [µM] |
| --- | --- |
| Cc1cc(-c2ccn3nc(NC(=O)C4CC4)cc3c2)c(O[C@@H]2CC[C@@H](O)C2)cn1 (stereo in doubt) [Example 569, (1*R, 3*R)—N-[5-[5-(3-hydroxycyclopentoxy)-2-methyl-4-pyridyl]pyrazolo[1,5-a]pyridin-2-yl]cyclopropanecarboxamide] | 0.0717 |
| CCN1CC[C@@H]1COc1cnc(C)cc1-c1ccn2nc(NC(=O)C3CC3)cc2c1 [Example 451, N-[5-[5-[[(2R)-1-ethylazetidin-2-yl]methoxy]-2-methyl-4-pyridyl]pyrazolo[1,5-a]pyridin-2-yl]cyclopropanecarboxamide] | 0.0182 |
| Cc1cc(-c2cn3cc(Nc4cc(C)nc(C)n4)nc3cn2)c(O[C@H]2C[C@H]3COC[C@@H](C2)N3)cn1 (single isomer, unassigned) [Example 348] | < 0.000847 |
| Cc1cc(-c2ccn3nc(NC(=O)C4CC4)c(C)c3c2)c(O[C@H]2C[C@H]3COC[C@@H](C2)N3)cn1 [Example 400, N-[3-methyl-5-[2-methyl-5-[[(1S,5R,7s)-3-oxa-9-azabicyclo[3.3.1]nonan-7-yl]oxy]-4-pyridyl]pyrazolo[1,5-a]pyridin-2-yl]cyclopropanecarboxamide] | 0.000912 |

Same assay, conditions: enzyme 6 nM, 6 mM ATP and 400 μM HDAC5tide (each 2× final concentration); 30 minutes pre-incubation, 2 hours; ADP-Glo Max luminescence; read-out: SIK2 high ATP IC50 (μM) (Test Example 2)

| SMILES | IC50 [µM] |
| --- | --- |
| Cc1cc(Nc2cc3cc(-c4cc(OC(F)F)ncc4OCC(C)(C)C(=O)N(C)C)ccn3n2)nc(C)n1 [Example 735, 3-[[6-(difluoromethoxy)-4-[2-[(2,6-dimethylpyrimidin-4-yl)amino]pyrazolo[1,5-a]pyridin-5-yl]-3-pyridyl]oxy]-N,N,2,2-tetramethyl-propanamide] | 0.00911 |
| Cc1cc(-c2ccn3nc(Nc4cc(C)c(=O)n(C)n4)cc3c2)c(OC2CCC(S(C)(=O)=O)CC2)cn1 (single isomer, unassigned) [Example 306, 2,4-dimethyl-6-((5-(2-methyl-5-(((1r,4r)-4-(methylsulfonyl)cyclohexyl)oxy)pyridin-4-yl)pyrazolo[1,5-a]pyridin-2-yl)amino)pyridazin-3(2H)-one] | 0.0358 |
| Cc1cc(-c2ccn3nc(Nc4cc(C)nc(C)n4)cc3c2)c(OC[C@H](C)C(C)(C)O)cn1 [Example 554, (3S)-4-[[4-[2-[(2,6-dimethylpyrimidin-4-yl)amino]pyrazolo[1,5-a]pyridin-5-yl]-6-methyl-3-pyridyl]oxy]-2,3-dimethyl-butan-2-ol] | 0.0275 |
| Cc1cc(-c2ccn3nc(NC(=O)C4CC4)cc3c2)c(OC[C@@]2(C#N)CCN(C)C2)cn1 (single isomer, unassigned) [Example 212, (*S)—N-[5-[5-[(3-cyano-1-methyl-pyrrolidin-3-yl)methoxy]-2-methyl-4-pyridyl]pyrazolo[1,5-a]pyridin-2-yl]cyclopropanecarboxamide] | 0.0472 |
| Cc1cc(-c2ccn3nc(NC(=O)C4CC4)cc3c2)c(OC[C@]2(F)CCN(C)C2)cn1 (single isomer, unassigned) [Example 519, (*S)—N-[5-[5-[(3-fluoro-1-methyl-pyrrolidin-3-yl)methoxy]-2-methyl-4-pyridyl]pyrazolo[1,5-a]pyridin-2-yl]cyclopropanecarboxamide] | 0.0251 |
| Cc1cc(-c2ccn3nc(Nc4cc(C)nc(C)n4)cc3c2)c(O[C@H]2C[C@H](N)C2)cn1 [Example 545, 5-(5-((1r,3r)-3-aminocyclobutoxy)-2-methylpyridin-4-yl)-N-(2,6-dimethylpyrimidin-4-yl)pyrazolo[1,5-a]pyridin-2-amine] | 0.0134 |
| Cc1cc(-c2ccn3nc(NC(=O)C4CC4)cc3c2)c(OCC2(F)CCN(C)C2)cn1 (single isomer, unassigned) [Example 449, *R—N-[5-[5-[(3-fluoro-1-methyl-pyrrolidin-3-yl)methoxy]-2-methyl-4-pyridyl]pyrazolo[1,5-a]pyridin-2-yl]cyclopropanecarboxamide] | 0.0472 |
| Cc1cc(-c2ccn3nc(NC(=O)C4CC4)cc3c2)c(O[C@H](CN)c2ccccc2)cn1 [Example 466, N-[5-[5-[(1S)-2-amino-1-phenyl-ethoxy]-2-methyl-4-pyridyl]pyrazolo[1,5-a]pyridin-2-yl]cyclopropanecarboxamide] | 0.00115 |
| Cc1cc(-c2ccn3nc(Nc4cnc(C(C)(C)C)cn4)cc3c2)c(OCC(C)(C)O)cn1 [Example 613, 1-[[4-[2-[(5-tert-butylpyrazin-2-yl)amino]pyrazolo[1,5-a]pyridin-5-yl]-6-methyl-3-pyridyl]oxy]-2-methyl-propan-2-ol] | 0.1 |
| Cc1cc(-c2ccn3nc(Nc4cccnn4)cc3c2)c(OC[C@@H]2CNCCO2)cn1 [Example 134, 5-[2-methyl-5-[[(2S)-morpholin-2-yl]methoxy]-4-pyridyl]-N-pyridazin-3-yl-pyrazolo[1,5-a]pyridin-2-amine] | 0.0128 |
| Cc1cc(Nc2cc3cc(-c4cc(CF)ncc4OCC(C)(C)O)ccn3n2)nc(C)n1 [Example 327, 1-[[4-[2-[(2,6-dimethylpyrimidin-4-yl)amino]pyrazolo[1,5-a]pyridin-5-yl]-6-(fluoromethyl)-3-pyridyl]oxy]-2-methyl-propan-2-ol] | 0.0366 |
| COc1cc(Nc2cc3cc(-c4cc(C)ncc4O[C@H]4CC[C@H](O)CC4)ccn3n2)cc(OC)c1C(=O)NC(C)C [Example 330, 4-[[5-[5-(4-hydroxycyclohexoxy)-2-methyl-4-pyridyl]pyrazolo[1,5-a]pyridin-2-yl]amino]-N-isopropyl-2,6-dimethoxy-benzamide] | 0.028 |
| Cc1cc(-c2ccn3nc(Nc4cc(C)nc(C)n4)cc3c2)c(OC[C@]2(C)CCOC2)cn1 (single isomer, unassigned) [Example 535, (*R)—N-(2,6-dimethylpyrimidin-4-yl)-5-[2-methyl-5-[(3-methyltetrahydrofuran-3-yl)methoxy]-4-pyridyl]pyrazolo[1,5-a]pyridin-2-amine] | 0.0107 |
| COc1cc(Nc2cc3cc(-c4cc(C)ncc4O[C@H]4CC[C@H](O)CC4)ccn3n2)cc(OC)c1C(=O)N(C)C [Example 332, 4-[[5-[5-(4-hydroxycyclohexoxy)-2-methyl-4-pyridyl]pyrazolo[1,5-a]pyridin-2-yl]amino]-2,6-dimethoxy-N,N-dimethyl-benzamide] | 0.015 |
| Cc1cc(-c2ccn3nc(Nc4cc(C)nc(C(F)(F)F)n4)cc3c2)c(OCC(C)(C)O)cn1 [Example 537, 2-methyl-1-[[6-methyl-4-[2-[[6-methyl-2-(trifluoromethyl)pyrimidin-4-yl]amino]pyrazolo[1,5-a]pyridin-5-yl]-3-pyridyl]oxy]propan-2-ol] | 0.0241 |
| COc1cc(Nc2cc3cc(-c4cc(C)ncc4O[C@H]4CC[C@H](O)CC4)ccn3n2)cc(OC(F)F)c1C(=O)NC1CC1 [Example 333, N-cyclopropyl-2-(difluoromethoxy)-4-[[5-[5-(4-hydroxycyclohexoxy)-2-methyl-4-pyridyl]pyrazolo[1,5-a]pyridin-2-yl]amino]-6-methoxy-benzamide] | 0.0448 |
| CNc1nc(C)cc(Nc2cc3cc(-c4cc(OCC(F)F)ncc4OCC(C)(C)C#N)ccn3n2)n1 [Example 725, 3-[[6-(2,2-difluoroethoxy)-4-[2-[[6-methyl-2-(methylamino)pyrimidin-4-yl]amino]pyrazolo[1,5-a]pyridin-5-yl]-3-pyridyl]oxy]-2,2-dimethyl-propanenitrile] | 0.00405 |
| Cc1cc(-c2ccn3nc(NC(=O)C4CC4)cc3c2)c(OC2CCC(=NO)CC2)cn1 (centres unmarked) [Example 199, N-[5-[5-(4-hydroxyiminocyclohexoxy)-2-methyl-4-pyridyl]pyrazolo[1,5-a]pyridin-2-yl]cyclopropanecarboxamide] | 0.0502 |
| COCc1nc(C)cc(Nc2cc3cc(-c4cc(C)ncc4OCC(C)(C)O)ccn3n2)n1 [Example 205, 1-[[4-[2-[[2-(methoxymethyl)-6-methyl-pyrimidin-4-yl]amino]pyrazolo[1,5-a]pyridin-5-yl]-6-methyl-3-pyridyl]oxy]-2-methyl-propan-2-ol] | 0.0181 |
| Cc1cc(-c2ccn3nc(Nc4ccn(C(C)C)n4)cc3c2)c(OC[C@@H]2CNCCO2)cn1 [Example 135, N-(1-isopropylpyrazol-3-yl)-5-[2-methyl-5-[[(2S)-morpholin-2-yl]methoxy]-4-pyridyl]pyrazolo[1,5-a]pyridin-2-amine] | 0.00986 |
| Cc1cc(-c2ccn3nc(Nc4ccc5cc[nH]c5n4)cc3c2)c(O[C@H]2CC[C@H](O)CC2)cn1 [Example 239, 4-[[6-methyl-4-[2-(1H-pyrrolo[2,3-b]pyridin-6-ylamino)pyrazolo[1,5-a]pyridin-5-yl]-3-pyridyl]oxy]cyclohexanol] | 0.00245 |
| Cc1cc(Nc2cc3cc(-c4cc(OCC(F)F)ncc4OCC(C)(C)C#N)ccn3n2)nn(C2CC2)c1=O [Example 730, 3-[[4-[2-[(1-cyclopropyl-5-methyl-6-oxo-pyridazin-3-yl)amino]pyrazolo[1,5-a]pyridin-5-yl]-6-(2,2-difluoroethoxy)-3-pyridyl]oxy]-2,2-dimethyl-propanenitrile] | 0.0154 |
| Cc1cc(-c2ccn3nc(Nc4cc(C)nc(N5CCCC5)n4)cc3c2)c(OCC(C)(C)O)cn1 [Example 285, 2-methyl-1-[[6-methyl-4-[2-[(6-methyl-2-pyrrolidin-1-yl-pyrimidin-4-yl)amino]pyrazolo[1,5-a]pyridin-5-yl]-3-pyridyl]oxy]propan-2-ol] | 0.0109 |
| Cc1cc(-c2ccc3nc(NC(=O)C4CC4)cn3c2)c(O[C@H]2CC[C@H](O)CC2)cn1 [Example 504, N-[6-[5-(4-hydroxycyclohexoxy)-2-methyl-4-pyridyl]imidazo[1,2-a]pyridin-2-yl]cyclopropanecarboxamide] | < 0.000847 |
| Cc1cc(-c2ccn3nc(NC(=O)C4CC4)cc3c2)c(O[C@@H]2CCC[C@@H](O)C2)cn1 (single isomer, unassigned) [Example 194, trans-N-(5-(5-(((1*R,3*R)-3-hydroxycyclohexyl)oxy)-2-methylpyridin-4-yl)pyrazolo[1,5-a]pyridin-2-yl)cyclopropanecarboxamide] | 0.0412 |
